Literature values, collected in patent US11555010B2, “Diamide antimicrobial agents” (BROWN UNIVERSITY, priority 2019, dated 2023).

Tested on: LT
Conditions: cited from earlier work

CC1=N[C@@H]2[C@@H](O)[C@H](O)[C@@H](CO)O[C@@H]2S1 [NAG-thiazoline]
binding to LT: weak binder
